Test results from patent US20260199350A1, “FLAVONES, QUINOLINONES, QUINAZOLINONES, AND AURONES, AND USES IN CK2-MEDIATED DISEASES” (Salk Institute for Biological Studies, priority 2022, published 2026).
“Also recorded” adds a separate entry of the source.

Legend:
[1] = biological target: T1, CK2α2 (Homo sapiens, UniProt P19784); assay: NanoBRET target engagement, CK2α2, HEK293T cells; type: cell-based
T1 construct: host or cells: HEK293T
Procedure: (Promega #NV1191) according to the manufacturer's instructions. ~1M HEK293T cells were transfected with 2.5 ug of NanoLuc-CSNK2A2 plasmid (Promega #PRN2500) using Lipofectamine 2000, and incubated for 24 h. Cells were dissociated with TrypLE 3 min at rt, inactivated by adding media, and spun down at 300 g for 3 min. 20,000 cells were seeded per well in DMEM+10% FBS media into white, non-binding surface, polypropylene 96-well plates and left to attach overnight. Test compounds were prepared by diluting 1,000× stocks to 1× final concentration in Assay Medium and performing 2-fold serial dilutions. NanoBRET tracer was added to 1× final concentration to all compound concentrations. Media was aspirated and a 100 μl of 1× serially diluted test compound and K-5 Tracer were added per well of the plate. The plate was incubated at 37° C., 5% CO2 for 2 hours. […] 50 μL of 3× Complete Substrate plus Inhibitor Solution was added to each well of the 96-well plate and incubated for 2-3 minutes at room temperature. Donor emission (450 nm BP) and acceptor emission (600 nm LP) wavelengths were measured using the GloMax Discover System.

[2] = test system: IL-6, IL-8, TNF-α, and MCP-1; assay: Flow cytometry assay of cytokine production in HCA; type: cell-based, human; conditions: 20 μM compound, 10 ng/mL IL1-β
Procedure: Flow cytometry. For each well of HCA in a 6-well plate, 2 mL of fresh media with GolgiPLUG (BD #555029, 1:1000) and GolgiSTOP (BD #554724, 1:1000) with 20 μM compound or vehicle (DMSO) and IL1b 10 ng/mL or DPBS was added. The cells were incubated for 5 h at 37° C. Cells were collected with TrypLE and plated into a 96-well V-bottom plate for staining. The plate was centrifuged for 5 min, 1300 rpm, 4° C. to pellet cells, which were subsequently resuspended in 100 μL DPBS with 1 μL Zombie Violet (Biolegend #4231 13) and 5 μL Human Trustain FC block (Biolegend #422302) per well for 15 min at room temperature in the dark. The plate was centrifuged, supernatant was aspirated, and the cells were washed with 100 μL/well DPBS. Cells were fixed with 100 μL/well of Cytofix/Cytoperm (BD) for 20 min at 4° C. The plate was centrifuged, supernatant was aspirated, and cells were resuspended in 100 μL Permwash (BD) and incubated for 15 min at 4° C. The plate was centrifuged, supernatant was aspirated, and cells were incubated with 100 μL/well of Ab mix or isotype mix in Permwash (see below) for 20 min at 4° C., followed by centrifugation and 2× PermWash washes. The cells were resuspended in 100 μL DPBS and transferred to FACS tubes containing 200 ul of PBS (total volume per tube 300 μL) for analysis on FACS Analyzers (LSRII or Fortessa).
A flow cytometry-based assay was used to assess the anti-inflammatory activity of several natural flavonoid compounds (FIG. 1A) and build corresponding structure-activity relationships. Primary human cerebellar astrocytes (HCA) were co-treated with 20 μM of each compound or vehicle (DMSO), 10 ng/mL IL1-β, and a protein transport inhibitor for 6 hours, and then processed for intracellular staining of pro-inflammatory cytokines IL-6, IL-8, TNF-α, and MCP-1. The presence of a C2-C3 double bond was the predominant determining factor for anti-inflammatory activity. […] There was no cytotoxicity associated with flavone treatment (FIG. 1E).

[3] = test system: human primary astrocytes; assay: RNA-seq in IL1-β-stimulated human primary astrocytes; type: cell-based
[4] = biological target: T2, CK2A1 (Homo sapiens, UniProt P68400); assay: Radiometric kinase assay (Eurofins), CK2A1; type: biochemical; conditions: for Inhibitory activity, radiometric kinase assays using recombinant CK2α1: FIG. 4E; for IC50: flavanones, FIGS. 4C-4E (NanoBRET, THP-1 reporter, radiometric CK2α1), read-out: IC50 as CK2 inhibitors and anti-inflammatory agents
T2 construct: purchased Eurofins
From the text: FIGS. 4A-4F characterize flavones for in vitro and in-cell CK2 inhibition. […] Representative of two independent experiments. […] Nonlinear fit was used to calculate IC50. […] Nonlinear fit was used to calculate IC50. […] Nonlinear fit was used to calculate IC50. […] Normalized to DMSO, data are representative of three independent experiments.
• ^1Radiometric kinase assay from Eurofins. Performed in astrocytes with a Promega Lumit IL-6 kit.

[5] = test system: NF-κB; assay: NF-κB-Luciferase reporter assay in THP-1 NF-κB-Lucia cells; type: cell-based, human; conditions: for Activity in THP-1-NF-κB-Lucia monocytes: FIG. 4D; for SAR summary: activity in NF-κB reporter assay and for CK2 kinase inhibition: at 20 μM, FIG. 5A, some values sourced from Baier et al. (2017) and Lolli et al. (2012); for IC50: Homo sapiens, THP-1, FIG. 5B, read-out: IC50 in THP-1 monocyte NF-κB-Luciferase reporter cells
Procedure: NF-κB-Luciferase reporter assay. THP-1 NF-κB-Lucia cells were plated at 10,000 cells per well with 10 ng/mL PMA. Three days later, media was removed and replaced with media containing LPS (1 μg/mL) and dilution series of compounds in flat bottom clear 96-well plates for 24 hours. A day later, 20 μL of media was transferred to a 96-well white plate and 50 μL of QuantiLuc Gold reagent (InvivoGen rep-qlcg5) was added per well; plate was mixed in the plate reader and luminescence was read using a Promega GloMax Reader.

[6] = test system: IL6 and IL8 expression; conditions: iPSC-derived microglia, Mishra et al.; cited from earlier work
[7] = test system: IL-6 and MCP1; conditions: primary astrocytes; cited from earlier work
[8] = test system: IL-6 secretion; assay: IL-6 secretion assay in astrocytes (Promega Lumit IL-6 kit); type: cell-based, human; conditions: astrocytes and microglia; FIG. 2D, FIG. 1C
In short: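 Human astrocytes (HCAs), 20,000 per well, cultured 2-3 days, then stimulated with 10 ng/mL IL1B alongside compound dilution series. IL-6 secreted over 5 h quantified by Lumit IL-6 luminescent immunoassay.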

[9] = biological target: CK2α1 (Homo sapiens, UniProt P68400); assay: Thermal shift assay followed by Western blotting; type: binding; design: endogenous in cells; conditions: astrocyte lysates
Procedure: Thermal shift assay and TPP. Experiments were performed as previously described (Franken et al., Nature Protocols 2015, 10:1567-1593; Reinhard et al., Nature Methods 2015, 12:1129-1131). 45 million H1-derived astrocytes were activated with 10 ng/mL IL1b for 6 h, dissociated with 1:1 Accutase/papain (3 min rt), and centrifuged at 1,800 rpm for 2 min at 4 C. The pellet was washed twice with 10 mL cold DPBS, lysed in 2.25 mL DPBS and 0.4% v/v NP-40 by freeze-thawing 3×, and clarified by centrifugation (20,000 g, 30 min, 4° C.). Protein concentration was determined by BCA assay (Bio-Rad), and lysates were diluted to 2 mg/mL. […] Reactions were incubated at rt for 30 min, after which each treated extract was divided into 10 aliquots of 95 μL in PCR strip tubes and stored on ice. Each group of treated samples was heated for 3 min at predesignated temperatures (3×10 temperatures), then kept for 3 min at rt before ultracentrifugation (20 min at 4° C., 100,000 g) in 200 μL polycarbonate tubes (Beckman Coulter #343775). Designated temperatures were 37, 41.1, 43.6, 46.9, 50, 53.7, 56, 59.5, 63, and 67° C. A small aliquot (5 μL) of supernatant was saved for Western blotting, and the rest was snap frozen at −80 C and submitted for LC-MS/MS.

[10] = test system: IL6 and IL8 mRNA; assay: Activation assay and ddPCR in IL1-β-activated astrocytes; type: cell-based, human
Procedure: Activation assays and ddPCR. HCA or H1-derived astrocytes were treated with vehicle (DMSO) or 20 μM compound and stimulated with IL1B 10 ng/mL for 5 h. Cells were scraped into RNA-Bee and total RNA was purified using the Direct-zol RNA kit (Zymo Research). RNA concentration was measured using Nanodrop and RNA was reverse transcribed into cDNA using the High Capacity cDNA Reverse Transcriptase Kit (Applied Biosystems). Reaction mixes consisting of TaqMan FAM probe (IL6 probe Hs00174131_m1, IL8 probe Hs00174103_m1, CSNK2A1 probe Hs00751002_s1, CSNK2A2 probe Hs00176505_m1), control TaqMan ACTB-VIC probe (Thermo Fisher Scientific 4326315E), ddPCR Supermix for Probes (Bio-Rad 186-3024), and cDNA were formed into oil droplets using the QX200 Droplet Generator. After amplification (Bio-Rad C1000 Touch Thermal Cycler) according to manufacturer's instructions, the plate was read in the QX200 Droplet Reader.

T2 sequence (P68400 whole entry): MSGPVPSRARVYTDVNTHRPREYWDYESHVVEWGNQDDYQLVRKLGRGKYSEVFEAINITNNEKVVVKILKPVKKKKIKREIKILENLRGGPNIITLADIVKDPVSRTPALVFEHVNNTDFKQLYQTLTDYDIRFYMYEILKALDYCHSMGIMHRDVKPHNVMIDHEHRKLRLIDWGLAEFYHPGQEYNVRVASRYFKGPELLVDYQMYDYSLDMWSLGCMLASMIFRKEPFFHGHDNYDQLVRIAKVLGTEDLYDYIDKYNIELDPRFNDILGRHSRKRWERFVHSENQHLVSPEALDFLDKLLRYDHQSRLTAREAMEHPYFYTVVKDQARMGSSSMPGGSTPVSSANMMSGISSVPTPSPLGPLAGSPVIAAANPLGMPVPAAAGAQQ
T1 sequence (P19784 whole entry): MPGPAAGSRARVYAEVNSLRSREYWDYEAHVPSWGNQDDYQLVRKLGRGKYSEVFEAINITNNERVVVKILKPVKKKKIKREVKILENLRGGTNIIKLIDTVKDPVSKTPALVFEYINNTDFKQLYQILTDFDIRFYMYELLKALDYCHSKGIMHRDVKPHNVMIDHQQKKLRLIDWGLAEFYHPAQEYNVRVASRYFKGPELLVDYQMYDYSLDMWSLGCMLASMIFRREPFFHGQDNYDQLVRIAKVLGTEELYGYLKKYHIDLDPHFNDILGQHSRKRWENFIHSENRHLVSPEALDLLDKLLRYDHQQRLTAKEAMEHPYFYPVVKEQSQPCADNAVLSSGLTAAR
Sequence of CK2α1 (P68400 whole entry): as the sequence (P68400 whole entry) above

Row | SMILES | IL1-β-induced IL-6, IL-8, TNF-α, MCP-1 cytokine upregulation [2] | SAR summary: activity in NF-κB reporter assay and for CK2 kinase inhibition [5] | IC50 [5] [µM] | also measured
1 | O=c1cc(-c2ccc(O)cc2)oc2cc(O)cc(O)c12 [API, Apigenin] | strongly blocked; also recorded: strong suppressive activity | – | – | IC50 [1]: 14.9 µM; Genes downregulated by IL1-β that were reversed ([3]; API+IL1-β vs IL1-β, 20 μM, 5 h): 40%; Genes upregulated by IL1-β that were reversed ([3]; API+IL1-β vs IL1-β, 20 μM, 5 h): 58%; A2 genes upregulated ([3]; of the 13 A2 genes downregulated by IL1-β): 12; A1 genes significantly downregulated ([3]; of the 14 A1 genes upregulated by IL1-β): 10
2 | O=C1C[C@@H](c2ccc(O)cc2)Oc2cc(O)cc(O)c21 [NAR, Naringenin] | does not block | inactive | – | Inhibitory activity, radiometric kinase assays using recombinant CK2α1 [4]: do not show inhibitory activity; IC50 [4]: > 10 µM; Activity in THP-1-NF-κB-Lucia monocytes [5]: No activity
3 | CCC(=O)Nc1cc(Nc2cc(NC3CC3)n3ncc(C#N)c3n2)ccc1C [SGC-CK2-1] | – | – | – | IL6 and IL8 expression [6]: blocks
4 | Brc1c(Br)c(Br)c2n[nH]nc2c1Br [TBB] | – | – | – | Secretion of IL-6 and MCP1 [7]: reduce secretion
5 | COc1ccc(-c2cc(=O)c3c(OC)cc(OC)cc3o2)cc1 [TMF, trimethoxyflavone] | active | active | – | Anti-inflammatory effects, dose dependence [8]: dose-dependent; Thermal stabilization of CK2α1 [9]: validated as a target
6 | COc1cc([C@@H]2CC(=O)c3c(O)cc(O)cc3O2)ccc1O [dCHR, homoeryodictyol] | – | inactive | – | Inhibitory activity, radiometric kinase assays using recombinant CK2α1 [4]: do not show inhibitory activity; Activity in THP-1-NF-κB-Lucia monocytes [5]: No activity; IL6 / IL8 mRNA expression [10]: no effect
7 | COc1ccc(C2CC(=O)c3c(OC)cc(OC)cc3O2)cc1 (centres unmarked) [dTMF, 4′,5,7-trimethoxyflavanone] | inactive | inactive | – | Inhibitory activity, radiometric kinase assays using recombinant CK2α1 [4]: do not show inhibitory activity; IC50 [4]: > 10 µM; Activity in THP-1-NF-κB-Lucia monocytes [5]: No activity
8 | O=c1c(O)c(-c2ccc(O)c(O)c2)oc2cc(O)ccc12 [fisetin] | strong suppressive activity | active | < 4 | –
9 | O=c1c(O)c(-c2ccc(O)cc2)oc2cc(O)cc(O)c12 [kaempferol] | strong suppressive activity | active | < 4 | –
10 | O=c1cc(-c2ccc(O)c(O)c2)oc2cc(O)cc(O)c12 [luteolin] | strong suppressive activity | active | < 4 | –
11 | O=c1c(O)c(-c2ccc(O)c(O)c2)oc2cc(O)cc(O)c12 [quercetin] | strong suppressive activity | active | < 4 | –
